The test system of one assay is Ctr1 cleavage. As to the kind of experiment: Ctr1 cleavage in wild type and Cathepsin L-/- mouse embryonic fibroblasts, anti-Ctr1 immunoblot. The class given is cell-based. The note with it: 10 μM, 16 hours, immunoblot (FIG. 7). On the procedure: Mouse embryonic fibroblasts from wild type and CatL^−/− littermates were cultured in medium supplemented with 10% fetal bovine serum and treated with DMSO or 10 μM of the cell permeable cysteine protease inhibitor E64d and harvested 16 hours later. Total proteins were isolated from the cells by homogenizing cells in ice cold PBS supplemented with 1% Triton-X, 0.1% SDS, and 1 mM EDTA. Cell debris was removed by centrifugation and the total amounts of soluble proteins were quantified in each sample. Equal amounts of proteins were separated on tris/glycine gradient gel, transferred to nitrocellulose membrane and blocked with 5% non-fat milk in Tris buffered saline supplemented with 0.05% Tween (TBST) for 1 h. Membranes were incubated with anti-Ctr1 antibody (1:1000) followed by anti-rabbit-HRP coupled antibody (1:5000) and bands detected by enhanced chemiluminescent substrate. Anti-Tubulin antibody was used as loading control.
Lanes 1 and 2 are duplicate samples from untreated wild type cells and lanes 5 and 6 are duplicate samples from untreated Cathepsin L knock out cells.

The test system of assay [1] is human Ctr1 protein containing the proline to alanine substitution at position 25 (Ctr1^P25A). As to the kind of experiment: Ctr1^P25A cleavage protection in stably transfected Ctr1-/- mouse embryonic fibroblasts, anti-Ctr1 immunoblot. The class given is cell-based. The note with it: Ctr1-/- MEFs expressing human Ctr1^P25A, 10 μM, 16 hours, immunoblot (FIG. 8). On the procedure: Mouse embryonic fibroblasts from Ctr1^−/− embryos were stably transfected with plasmids expressing either the wild type human Ctr1 protein or the human Ctr1 protein containing the proline to alanine substitution at position 25 (Ctr1^P25A). Cells were cultured in medium supplemented with 20% fetal bovine serum and treated with DMSO or 10 μM cysteine protease […], Z-FY(t-Bu)-DMK and harvested 16 hours later. Total proteins were isolated from the cells by homogenizing cells in ice cold PBS supplemented with 1% Triton-X, 0.1% SDS, and 1 mM EDTA. Cell debris was removed by centrifugation and the total amounts of soluble proteins were quantified in each sample. Equal amounts of proteins were separated on tris/glycine gradient gel, transferred to nitrocellulose membrane and blocked with 5% non-fat milk in Tris buffered saline supplemented with 0.05% Tween (TBST) for 1 h. Membranes were incubated with anti-Ctr1 antibody (1:1000) followed by anti-rabbit-HRP coupled antibody (1:5000) and bands detected by enhanced chemiluminescent substrate. Anti-Actin antibody was used as loading control.

Residues, ends and D or L forms follow the SMILES beside them. *: point of attachment. Cbz = O=C(OCc1ccccc1)*; CHN2 = [N-]=[N+]=C*; tBu = CC(C)(C)*

Consider `CCOC(=O)[C@H]1O[C@@H]1C(=O)N[C@@H](CC(C)C)C(=O)NCCC(C)C` (relative stereo) [E64d, (2S,3S)-trans-Epoxysuccinyl-L-leucylamido-3-methylbutane ethyl ester], for which the “levels of cleaved Ctr1” value is “not Cathepsin L knock out cells” with Ctr1 cleavage (Cathepsin L knock out MEFs) and “dramatic reduction in the levels of cleaved Ctr1” in the assay on Ctr1 cleavage (wild type MEFs). As for `CC(C)(C)Oc1ccc(CC(NC(=O)C(Cc2ccccc2)NC(=O)OCc2ccccc2)C(=O)C=[N+]=[N-])cc1` (stereo not drawn) [Z-FY(t-Bu)-DMK, benzyl (1-((1-(4-(tert-butoxy)phenyl)-4-diazo-3-oxobutan-2-yl)amino)-1-oxo-3-phenylpropan-2-yl)carbamate] (Cbz-Phe-Tyr(tBu)-CHN2; configuration not given here), in assay [1], the “reduction in full length form of Ctr1^P25A” value is given as “can be alleviated by treatment with Cathepsin L inhibitors”.

Values taken from patent US20170037471A1, “METHODS FOR DIAGNOSING & TREATING COPPER-DEPENDENT DISEASES” (Duke University, priority 2013, published 2017).
